# Values joined by “and” are separate entries in the source; they are usually repeats but may differ in a detail not shown here. Equal values may be shown once. Active and inactive are the calls of the source. How the calls were made is not given here.
# Molecular target: Neuropeptides B/W receptor type 1 (Homo sapiens) (UniProt P48145)
# Experiment: antagonism of neuropeptide B/W receptor GPR7 – cell-based, fluorescence, dose response, set 2, late-stage follow-up (AID 504868)
# Details: GPR7-expressing cells, fluorescence antagonist readout
Structure (SMILES),IC50 (run 1),IC50 (run 2),IC50 (run 3)
COc1ccc(Oc2c(C#N)cnn(-c3ccc(C(C)C)cc3)c2=O)cc1,4190 nM,2410 nM,–
Cc1ccc(-n2ncc(Cl)c(Oc3ccc(CO)cc3)c2=O)cc1,2260 nM,844 nM,1710 nM
Cc1ccc(-n2ncc(Cl)c(Oc3ccc(OC(F)(F)F)cc3)c2=O)cc1,878 nM,518 nM,836 nM
Cc1ccc(-n2ncc(Cl)c(Oc3ccc(C(F)(F)F)cc3)c2=O)cc1,2160 nM,1050 nM,1800 nM
COc1ccc(Oc2c(Cl)cnn(-c3ccc(C)cc3)c2=O)cc1,1010 nM and 2230 nM,741 nM and 1420 nM,1350 nM
COc1ccc(Oc2c(C3CC3)cnn(-c3ccc(C)cc3)c2=O)cc1,6220 nM,4000 nM,–
COc1ccc(Oc2c(C)cnn(-c3ccc(C(C)C)cc3)c2=O)cc1,7480 nM,7220 nM,–
COC(=O)c1cnn(-c2ccc(C(C)C)cc2)c(=O)c1Oc1ccc(OC)cc1,2730 nM,1880 nM,–
COc1ccc(Oc2c(C=O)cnn(-c3ccc(C(C)C)cc3)c2=O)cc1,6200 nM,4410 nM,–
COc1ccc(Oc2c(-c3ccccc3)cnn(-c3ccc(C)cc3)c2=O)cc1,> 20000 nM (inactive),> 20000 nM (inactive),> 20000 nM (inactive)

# — PubChem BioAssay AID504868 (The Scripps Research Institute Molecular Screening Center, 2011)
